Laboratory results: PubChem BioAssay AID1963862 (Molecular Pharmacology Branch, DTP, NCI, 2024)

Test system: KRAS patient-derived spheroids with HUVEC/MSC, viability
Assay: Anticancer human tumor 941728-121-R-J1-PDC patient-derived lung adenocarcinoma cell line growth inhibition [KRAS2]
Conditions: for IC50: curve of first compound; for viability, T/C: stronger effect = lower value; active means viability on the fitted dose curve at most 10% of control; inactive means the rest
Description: Multicellular complex tumor spheroid response to RAS pathway inhibitors in combination with a targeted agents in patient-derived cell lines with oncogenic KRAS variants from multiple cancer types
A high-throughput screen of multi-cell type tumor spheroids was designed to identify active combinations of targeted small molecules and KRAS pathway inhibitors. Complex spheroids include a stromal component modeled by human endothelial cells (HUVEC) and fibroblasts modeled by human mesenchymal stem cells (MSCs). The concentration ranges selected for each drug and investigational agent were based upon clinically achievable concentrations if the clinical Cmax of the agent was known.
Compounds. The drugs and investigational agents: BI-3406 (NSC825286), BAY-293 (NSC824723), batoprotafib (TNO155; NSC825523), sotorasib (AMG 510; NSC818433), MRTX1257 (NSC819558), elimusertib (BAY 1895344; NSC800525), molibresib (GSK525762; NSC774829), temuterkib (LY3214996; NSC803410), venetoclax (NSC766270), alisertib (NSC759677), olaparib (NSC753686), talazoparib (NSC767125), erdafitinib (NSC781556), ipatasertib (NSC767898), cabozantinib (NSC761068), nintedanib (NSC756659), abemaciclib (NSC768073), docetaxel (NSC628503), trametinib (NSC758246), and sapanisertib (NSC764658) were obtained from the National Cancer Institute (NCI) Developmental Therapeutics Program Chemical Repository. The FDA-approved anticancer drug set is available from the Developmental Therapeutics Program. […] The stock solutions were prepared in dimethyl sulfoxide (DMSO, Sigma-Aldrich, St. Louis, MO, cat. D2650) at 800-fold the tested concentration and stored at -70 degrees C prior to their use. All drugs and investigational agents were tested over a range starting from a high concentration at or near the clinical Cmax and decreasing in half-log increments. If the clinical Cmax for an agent had not been determined, the highest concentration tested was 10 microM.
Cell Culture. All cells were maintained in an incubator at 37 degrees C and 5% CO2 with 95% humidity. The PDC lines were cultured according to standard operating procedures established by the NCI PDMR (https://pdmr.cancer.gov/sops/default.htm). Briefly, all PDCs were thawed and cultured in Matrigel-coated flasks prepared with a working solution of 1X Ham's F-12 nutrient mix, without supplementation (Invitrogen, Waltham, MA, cat. 11765054), 100 U/mL penicillin-streptomycin (Invitrogen, cat. 15140122), and 2.5% Matrigel (Corning Inc., Corning, NY, cat. 354248) for the first three passages. All PDCs were cultured in complete DMEM/F-12 media containing advanced DMEM/F-12 (Invitrogen, cat. 12634028), 4.9% defined fetal bovine serum, heat inactivated (HyClone Laboratories Inc., Logan, UT, cat. SH30070.03HI), 389 ng/mL hydrocortisone (Sigma-Aldrich, cat. H4001), 9.7 ng/mL human EGF recombinant protein (Invitrogen, cat. PHG0313), 23.4 microg/mL adenine (Sigma-Aldrich, cat. A2786), 97.3 U/mL penicillin-streptomycin (Invitrogen, cat. 15140122), 1.9 mM L-glutamine (Invitrogen, cat. 25030081), and 9.7 microM Y-27632 dihydrochloride (Tocris Bioscience, Bristol, United Kingdom, cat. 1254). The PDCs were cultured in complete DMEM/F12 media without 9.7 microM Y-27632 dihydrochloride for at least two passages prior to the screen. The established cell line HOP-62 was cultured in RPMI 1640 medium, HEPES (Invitrogen, cat. 22400105) with 10% defined fetal bovine serum (HyClone Laboratories Inc., cat. SH30070.03) and 2 mM L-glutamine (Invitrogen, cat. 25030081). The pooled donor HUVEC were cultured in endothelial cell growth medium 2 (PromoCell, Heidelberg, Germany, cat. C-22011) and the hMSC were cultured in mesenchymal stem cell growth medium 2 (PromoCell, cat. C-28009). For all experiments, HUVEC and hMSC were used at passages </=5, while the malignant cell lines were used at passages </=15. […]

[1] = second compound 0.1 µM, first compound 0.0316 µM
[2] = second compound 0.1 µM, first compound 0.1 µM
[3] = second compound 0.1 µM, first compound 0.316 µM
[4] = second compound 0.1 µM, first compound 1 µM
[5] = second compound 0.1 µM, first compound 3.16 µM
[6] = second compound 0.316 µM, first compound 0.0316 µM
[7] = second compound 0.316 µM, first compound 0.1 µM
[8] = second compound 0.316 µM, first compound 0.316 µM
[9] = second compound 0.316 µM, first compound 1 µM
[10] = second compound 0.316 µM, first compound 3.16 µM
[11] = second compound 1 µM, first compound 0.0316 µM
[12] = second compound 1 µM, first compound 0.1 µM
[13] = second compound 1 µM, first compound 0.316 µM
[14] = second compound 1 µM, first compound 1 µM
[15] = second compound 1 µM, first compound 3.16 µM
[16] = second compound 3.16 µM, first compound 0.0316 µM
[17] = second compound 3.16 µM, first compound 0.1 µM
[18] = second compound 3.16 µM, first compound 0.316 µM
[19] = second compound 3.16 µM, first compound 1 µM
[20] = second compound 3.16 µM, first compound 3.16 µM
[21] = second compound 10 µM, first compound 0.0316 µM
[22] = second compound 10 µM, first compound 0.1 µM
[23] = second compound 10 µM, first compound 0.316 µM
[24] = second compound 10 µM, first compound 1 µM
[25] = second compound 0.1 µM, first compound 0.00316 µM
[26] = second compound 0.1 µM, first compound 0.01 µM
[27] = second compound 0.316 µM, first compound 0.00316 µM
[28] = second compound 0.316 µM, first compound 0.01 µM
[29] = second compound 1 µM, first compound 0.00316 µM
[30] = second compound 1 µM, first compound 0.01 µM
[31] = second compound 3.16 µM, first compound 0.00316 µM
[32] = second compound 3.16 µM, first compound 0.01 µM
[33] = second compound 10 µM, first compound 0.00316 µM
[34] = second compound 10 µM, first compound 0.01 µM
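Further: spheroids exposed to agents for seven days before readout.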

CC1OCC2(CCN(c3cnc(Sc4ccnc(N)c4Cl)c(N)n3)CC2)C1N (stereo not given) + CNCc1ccccc1-c1csc(C(C)Nc2nc(C)nc3cc(OC)c(OC)cc23)c1
inactive: viability, T/C [1] 49.5% | viability, T/C [2] 38.1% | viability, T/C [3] 38.1% | viability, T/C [4] 32.5% | viability, T/C [5] 35.3% | viability, T/C (second compound 0.1 µM, first compound 10 µM) 34% | viability, T/C [6] 41% | viability, T/C [7] 34.7% | viability, T/C [8] 31.2% | viability, T/C [9] 28.9% | viability, T/C [10] 30.2% | viability, T/C (second compound 0.316 µM, first compound 10 µM) 30.1% | viability, T/C [11] 37.6% | viability, T/C [12] 36.6% | viability, T/C [13] 28.2% | viability, T/C [14] 26.2% | viability, T/C [15] 20.9% | viability, T/C (second compound 1 µM, first compound 10 µM) 17.8%
active: viability, T/C [16] 5.49% | viability, T/C [17] 2.19% | viability, T/C [18] 2.26% | viability, T/C [19] 2.13% | viability, T/C [20] 0.72% | viability, T/C (second compound 3.16 µM, first compound 10 µM) 0.85% | viability, T/C [21] 0.11% | viability, T/C [22] 0.12% | viability, T/C [23] 0.4% | viability, T/C [24] 0.22% | viability, T/C (second compound 10 µM, first compound 3.16 µM) 1.25% | viability, T/C (second compound 10 µM, first compound 10 µM) 0.16%
< 31.6 nM: IC50 (second compound 0.1 µM) | IC50 (second compound 0.316 µM) | IC50 (second compound 1 µM) | IC50 (second compound 3.16 µM) | IC50 (second compound 10 µM)

CCN1CCN(Cc2ccc(Nc3ncc(F)c(-c4cc(F)c5nc(C)n(C(C)C)c5c4)n3)nc2)CC1 + COc1cc2nc(C)nc(NC(C)c3cc(N)cc(C(F)(F)F)c3)c2cc1OC1CCOC1
active: viability, T/C [34] 6.08% | viability, T/C [21] 2.12% | viability, T/C [22] 0.46% | viability, T/C [23] 0.87% | viability, T/C [24] 0.85%
< 3.16 nM: IC50 (second compound 0.1 µM) | IC50 (second compound 0.316 µM) | IC50 (second compound 1 µM) | IC50 (second compound 3.16 µM) | IC50 (second compound 10 µM)
inactive: viability, T/C [25] 45.9% | viability, T/C [26] 41% | viability, T/C [1] 34.2% | viability, T/C [2] 36.8% | viability, T/C [3] 42% | viability, T/C [4] 43.3% | viability, T/C [27] 44.2% | viability, T/C [28] 35.3% | viability, T/C [6] 28.8% | viability, T/C [7] 31.7% | viability, T/C [8] 35.3% | viability, T/C [9] 40.8% | viability, T/C [29] 27.8% | viability, T/C [30] 28.7% | viability, T/C [11] 28.5% | viability, T/C [12] 27.7% | viability, T/C [13] 22.1% | viability, T/C [14] 32.9% | viability, T/C [31] 23.3% | viability, T/C [32] 22.7% | viability, T/C [16] 21.1% | viability, T/C [17] 19.5% | viability, T/C [18] 15.6% | viability, T/C [19] 14.5% | viability, T/C [33] 17.2%

CC1COCCN1c1cc(-c2ccnn2C)c2ccnc(-c3ccn[nH]3)c2n1 (stereo not given) + C=CC(=O)N1CCN(c2nc(OCC3CCCN3C)nc3c2CCN(c2cccc4cccc(C)c24)C3)CC1CC#N
< 10 nM: IC50 (second compound 0.0316 µM) | IC50 (second compound 0.1 µM) | IC50 (second compound 0.316 µM) | IC50 (second compound 1 µM) | IC50 (second compound 3.16 µM)
inactive: viability, T/C (second compound 0.0316 µM, first compound 0.01 µM) 26.5% | viability, T/C (second compound 0.0316 µM, first compound 0.0316 µM) 24.8% | viability, T/C (second compound 0.0316 µM, first compound 0.1 µM) 19.9% | viability, T/C (second compound 0.0316 µM, first compound 0.316 µM) 19.6% | viability, T/C (second compound 0.0316 µM, first compound 1 µM) 16.9% | viability, T/C (second compound 0.0316 µM, first compound 3.16 µM) 14.6% | viability, T/C [26] 26.5% | viability, T/C [1] 28.3% | viability, T/C [2] 19.9% | viability, T/C [3] 18.5% | viability, T/C [4] 16.6% | viability, T/C [5] 13.3% | viability, T/C [28] 23% | viability, T/C [6] 22.7% | viability, T/C [7] 25.9% | viability, T/C [8] 17.6% | viability, T/C [9] 16.1% | viability, T/C [10] 12.8% | viability, T/C [30] 22.9% | viability, T/C [11] 24.2% | viability, T/C [12] 19% | viability, T/C [13] 18.1% | viability, T/C [14] 18.9% | viability, T/C [15] 15.4%
active: viability, T/C [32] 2.14% | viability, T/C [16] 10.7% | viability, T/C [17] 2.17% | viability, T/C [18] 1.73% | viability, T/C [19] 6.37% | viability, T/C [20] 6%

CN(C)C/C=C/C(=O)Nc1cc2c(Nc3ccc(F)c(Cl)c3)ncnc2cc1O[C@H]1CCOC1 + COc1cc2nc(C)nc(NC(C)c3cc(N)cc(C(F)(F)F)c3)c2cc1OC1CCOC1
< 0.316 nM: IC50 (second compound 0.316 µM) | IC50 (second compound 1 µM) | IC50 (second compound 3.16 µM) | IC50 (second compound 10 µM)
0.885 nM: IC50 (second compound 0.1 µM)
inactive: viability, T/C (second compound 0.1 µM, first compound 0.000316 µM) 60.5% | viability, T/C (second compound 0.1 µM, first compound 0.001 µM) 50.3% | viability, T/C [25] 42.9% | viability, T/C [26] 44.4% | viability, T/C [1] 43.4% | viability, T/C [2] 49.3% | viability, T/C (second compound 0.316 µM, first compound 0.000316 µM) 37.2% | viability, T/C (second compound 0.316 µM, first compound 0.001 µM) 32.5% | viability, T/C [27] 32.5% | viability, T/C [28] 30.5% | viability, T/C [6] 31.1% | viability, T/C [7] 36.4% | viability, T/C (second compound 1 µM, first compound 0.000316 µM) 40.6% | viability, T/C (second compound 1 µM, first compound 0.001 µM) 34.3% | viability, T/C [29] 28.9% | viability, T/C [30] 34.3% | viability, T/C [11] 33.3% | viability, T/C [12] 34.4% | viability, T/C (second compound 3.16 µM, first compound 0.000316 µM) 20.1% | viability, T/C (second compound 3.16 µM, first compound 0.001 µM) 20.4% | viability, T/C [31] 18.3% | viability, T/C [32] 15.4% | viability, T/C [16] 14.8% | viability, T/C [17] 15.8% | viability, T/C (second compound 10 µM, first compound 0.000316 µM) 19.4% | viability, T/C (second compound 10 µM, first compound 0.001 µM) 15.2% | viability, T/C [33] 16% | viability, T/C [34] 14.6% | viability, T/C [21] 14.7% | viability, T/C [22] 16.4%
